# *1 amine or outer side, *2 acyl side, *3 side chain or, on linkers, in order; H or OH if unused. Where a SMILES comes first, the peptide text is derived from it. [ ]: non-standard residue; d: D form. The star is where a group is joined. Abu(ψCOCO) = CC[C@H](N[*:1])C(=O)C(=O)[*:2]; Boc = CC(C)(C)OC(=O)*; OtBu = CC(C)(C)O*; NHAllyl = C=CCN*
# Biological target: NS3 (Hepatitis C virus, UniProt A3EZJ3)
# Test: Inhibition against hepatitis C virus protease NS3 activity
# Set-up: species or system Hepacivirus hominis
# Chain of NS3 (A3EZJ3 whole entry): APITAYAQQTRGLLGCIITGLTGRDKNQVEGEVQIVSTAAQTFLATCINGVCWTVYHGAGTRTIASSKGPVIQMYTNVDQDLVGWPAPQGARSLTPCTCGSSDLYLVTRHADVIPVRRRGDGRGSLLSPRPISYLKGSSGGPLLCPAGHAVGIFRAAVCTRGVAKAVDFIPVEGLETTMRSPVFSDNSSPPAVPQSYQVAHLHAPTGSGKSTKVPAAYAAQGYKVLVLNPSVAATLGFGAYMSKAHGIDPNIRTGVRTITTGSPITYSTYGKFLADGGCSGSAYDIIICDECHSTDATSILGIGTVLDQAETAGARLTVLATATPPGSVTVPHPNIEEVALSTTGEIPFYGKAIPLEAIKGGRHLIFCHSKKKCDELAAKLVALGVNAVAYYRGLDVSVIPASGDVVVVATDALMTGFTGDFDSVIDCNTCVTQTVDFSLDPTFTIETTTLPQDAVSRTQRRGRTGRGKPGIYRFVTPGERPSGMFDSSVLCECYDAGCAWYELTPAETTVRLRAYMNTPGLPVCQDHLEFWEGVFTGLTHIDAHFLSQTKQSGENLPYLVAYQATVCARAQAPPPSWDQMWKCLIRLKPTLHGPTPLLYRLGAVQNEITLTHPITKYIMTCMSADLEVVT
row,Compound,IC50
1,C=CCC(NC(=O)[C@H]1CCCN1C(=O)[C@@H](NC(=O)[C@@H](NC(=O)[C@H](CCC(=O)O)NC(=O)[C@@H](N)CC(=O)O)C(C)C)C(C)C)C(=O)C(=O)CC(C)C (stereo partly specified),4800 nM
2,C=CCC(NC(=O)[C@H]1CCCN1C(=O)[C@@H](NC(=O)[C@@H](NC(=O)[C@H](CCC(=O)OC(C)(C)C)NC(=O)[C@H](CC(=O)OC(C)(C)C)NC(=O)OC(C)(C)C)C(C)C)C(C)C)C(=O)C(=O)OC (stereo partly specified),> 30000 nM
3,C=CCC(NC(=O)[C@H]1CCCN1C(=O)[C@@H](NC(=O)[C@@H](NC(=O)[C@H](CCC(=O)O)NC(=O)[C@@H](N)CC(=O)O)C(C)C)C(C)C)C(=O)C(=O)NCC (stereo partly specified),350 nM
4,C=CCC(NC(=O)[C@H]1CCCN1C(=O)[C@@H](NC(=O)[C@@H](NC(=O)[C@H](CCC(=O)O)NC(=O)[C@@H](N)CC(=O)O)C(C)C)C(C)C)C(=O)C(=O)OC (stereo partly specified),4340 nM
5,C=CCC(NC(=O)[C@H]1CCCN1C(=O)[C@@H](NC(=O)[C@@H](NC(=O)[C@H](CCC(=O)O)NC(=O)[C@@H](N)CC(=O)O)C(C)C)C(C)C)C(=O)C(=O)C1CC=CCC1 (stereo partly specified),4230 nM
6,C=CCC(NC(=O)[C@H]1CCCN1C(=O)[C@@H](NC(=O)[C@@H](NC(=O)[C@H](CCC(=O)OC(C)(C)C)NC(=O)[C@H](CC(=O)OC(C)(C)C)NC(=O)OC(C)(C)C)C(C)C)C(C)C)C(=O)C(=O)CC(C)C (stereo partly specified),> 30000 nM
7,C=CCNC(=O)C(=O)C(CC=C)NC(=O)[C@H]1CCCN1C(=O)[C@@H](NC(=O)[C@@H](NC(=O)[C@H](CCC(=O)OC(C)(C)C)NC(=O)[C@H](CC(=O)OC(C)(C)C)NC(=O)OC(C)(C)C)C(C)C)C(C)C (stereo partly specified),570 nM
8,C=CCNC(=O)C(=O)C(CC=C)NC(=O)[C@H]1CCCN1C(=O)[C@@H](NC(=O)[C@@H](NC(=O)[C@H](CCC(=O)O)NC(=O)[C@@H](N)CC(=O)O)C(C)C)C(C)C (stereo partly specified),340 nM
9,C=CCNC(=O)C(=O)[C@H](CC)NC(=O)[C@@H]1CCCN1C(=O)[C@@H](NC(=O)[C@@H](NC(=O)[C@H](CCC(=O)OC(C)(C)C)NC(=O)[C@H](CC(=O)OC(C)(C)C)NC(=O)OC(C)(C)C)C(C)C)C(C)C (Boc-D(OtBu)E(OtBu)VVP[Abu(ψCOCO)]-NHAllyl),840 nM
10,C=CCNC(=O)C(=O)[C@H](CC)NC(=O)[C@@H]1CCCN1C(=O)[C@@H](NC(=O)[C@@H](NC(=O)[C@H](CCC(=O)O)NC(=O)[C@@H](N)CC(=O)O)C(C)C)C(C)C (H-DEVVP[Abu(ψCOCO)]-NHAllyl),420 nM
11,Ac-DEVVPC-OH,2500 nM

# Source: ChEMBL document CHEMBL1133326, “Alpha-ketoamides, alpha-ketoesters and alpha-diketones as HCV NS3 protease inhibitors” (Bioorg Med Chem Lett, 2000)
